Experiment: xn = mol fraction of the nth substance listed
Details: 298 K, Liquid

ClCCCCCl [1,4-dichlorobutane] + CC(=O)N(C)C
mass density [kg/m3]
Details	x2 = 0.0975	x2 = 0.2001	x2 = 0.2996	x2 = 0.4017	x2 = 0.5009	x2 = 0.5981	x2 = 0.6987	x2 = 0.801	x2 = 0.9012
100 kPa	1116.3	1097.8	1079.3	1060	1040.7	1021.7	1001.1	980	958.6
500 kPa	1116.6	1098.2	1079.6	1060.3	1041	1022	1001.3	980.3	958.8
1000 kPa	1117	1098.6	1080	1060.6	1041.4	1022.3	1001.7	980.6	959.2
1500 kPa	1117.4	1098.9	1080.3	1061	1041.7	1022.7	1002	980.8	959.5
2000 kPa	1117.7	1099.3	1080.7	1061.3	1042	1023	1002.3	981.2	959.8
2500 kPa	1118.1	1099.6	1081	1061.7	1042.4	1023.3	1002.8	981.6	960.1
3000 kPa	1118.5	1100.1	1081.4	1062.1	1042.7	1023.7	1003.1	982	960.4
3500 kPa	1118.9	1100.4	1081.8	1062.4	1043.1	1024	1003.4	982.2	960.7
4000 kPa	1119.3	1100.8	1082.1	1062.8	1043.4	1024.4	1003.7	982.6	961
4500 kPa	1119.6	1101.2	1082.5	1063.2	1043.7	1024.8	1004	982.9	961.3
5000 kPa	1120	1101.5	1082.8	1063.4	1044.1	1025	1004.4	983.2	961.6
5500 kPa	1120.4	1101.9	1083.2	1063.8	1044.5	1025.4	1004.7	983.4	961.9
6000 kPa	1120.7	1102.2	1083.6	1064.2	1044.9	1025.6	1005	983.8	962.2
6500 kPa	1121.1	1102.6	1083.9	1064.5	1045.2	1026	1005.3	984.1	962.6
7000 kPa	1121.5	1102.9	1084.3	1064.9	1045.5	1026.4	1005.7	984.4	962.9
7500 kPa	1121.9	1103.2	1084.6	1065.2	1045.8	1026.7	1006	984.8	963.1
8000 kPa	1122.2	1103.6	1085	1065.5	1046.2	1027	1006.3	985	963.5
8500 kPa	1122.5	1104	1085.4	1065.9	1046.6	1027.3	1006.6	985.4	963.7
9000 kPa	1123	1104.3	1085.7	1066.2	1046.9	1027.7	1007	985.6	964
9500 kPa	1123.2	1104.7	1086	1066.6	1047.2	1028	1007.3	986	964.3
10000 kPa	1123.7	1105.2	1086.4	1067	1047.6	1028.5	1007.6	986.3	964.7
10500 kPa	1124.1	1105.5	1086.8	1067.3	1047.9	1028.8	1008	986.7	965
11000 kPa	1124.4	1105.8	1087.2	1067.6	1048.2	1029.1	1008.3	986.9	965.2
11500 kPa	1124.7	1106.2	1087.5	1068	1048.6	1029.5	1008.6	987.3	965.6
11900 kPa	–	–	–	–	–	–	–	987.6	–
12000 kPa	1125.1	1106.6	1087.8	1068.3	1048.9	1029.8	1008.9	–	965.9
12500 kPa	1125.5	1106.8	1088.2	1068.7	1049.2	1030.1	1009.3	987.9	966.3
13000 kPa	1125.8	1107.2	1088.5	1069	1049.6	1030.4	1009.6	988.2	966.5
13400 kPa	–	–	–	1069.3	1049.9	–	–	–	–
13500 kPa	1126.1	1107.6	1088.9	–	–	1030.7	1009.9	988.5	966.8
14000 kPa	1126.5	1107.9	1089.1	1069.7	1050.3	1031	1010.2	988.8	967.1
14500 kPa	1126.8	1108.2	1089.5	1070	1050.6	1031.4	1010.5	989.1	967.4
15000 kPa	1127.2	1108.6	1089.9	1070.3	1050.9	1031.6	1010.8	989.4	967.7
15500 kPa	1127.6	1108.9	1090.2	1070.6	1051.2	1032	1011.1	989.7	968
16000 kPa	1127.9	1109.3	1090.5	1071	1051.5	1032.3	1011.4	990	968.2
16400 kPa	1128.2	–	–	–	1051.8	–	–	–	–
16500 kPa	–	1109.6	1090.9	1071.4	–	1032.6	1011.7	990.2	968.5
17000 kPa	1128.6	1109.9	1091.2	1071.6	1052.1	1032.9	1012	990.5	968.7
17500 kPa	1129	1110.3	1091.6	1072	1052.4	1033.2	1012.4	990.8	969.1
17900 kPa	–	–	–	–	1052.7	–	–	–	–
18000 kPa	1129.3	1110.6	1091.8	1072.3	–	1033.5	1012.7	991.1	969.3
18500 kPa	1129.6	1110.9	1092.2	1072.6	1053.1	1033.8	1013	991.4	969.6
19000 kPa	1130	1111.3	1092.5	1073	1053.5	1034.2	1013.3	991.8	969.9
19500 kPa	1130.3	1111.7	1092.8	1073.3	1053.8	1034.5	1013.6	992	970.1
20000 kPa	1130.8	1112	1093.3	1073.8	1054.1	1034.8	1014	992.4	970.5

Reference: the NIST ThermoML archive (doi:10.1021/je700339f)
